{"source": "patent US8029799B2", "about": "“Use of thymosin alpha 1 for preparing a medicament for the treatment of stage IV malignant melanoma” (SciClone Pharmaceuticals, Inc., priority 2006, dated 2011)", "key": {"[1]": {"tested_on": "Stage IV Melanoma Characterized by Distant Unresectable Metastases", "assay": "Phase II clinical trial, tumor response (RECIST) in stage IV melanoma patients", "assay_type": "in vivo, human", "details": "preliminary analysis on 142 patients; higher doses of Tα1", "description": "Trial Design phase II, randomized, stratified, open-study testing different doses of Tα1 in association with DTIC and IFNα, as first line therapy for stage IV melanoma patients characterized by distant unresectable metastases (AJCC; Journal of Clinical Oncology 2001, 19: 3635-3648) without brain metastases. The primary study end-point was tumor response, and the following combination composition were used: • DTIC (800 mg/m^2)+IFNα (3 MIU)+Tα1 (1.6 mg) (97 pts); • DTIC (800 mg/m^2)+IFNα (3 MIU)+Tα1 (3.2 mg) (97 pts); • DTIC (800 mg/m^2)+Tα1 (3.2 mg) (98 pts); • DTIC (800 mg/m^2)+IFNα (3 MIU) (94 pts);\nThe five groups were analyzed independently one another within the so-called “pick the winner” strategy.\nMethods: Recycling every 28 days, patients were administered DTIC (800 mg/m^2) i.v. at day 1, Tα1 (1.6, 3.2 or 6.4 mg) s.c. at days 8-11 and 15-18, and IFNα (3 MIU) s.c. at day 11 and 18. Clinical response was evaluated every two cycles according to RECIST criteria (New Guidelines to Evaluate the Response to Treatment in Solid Tumors; Journal of the National Cancer Institute, 2000. 92: 205-216) utilizing a central reader.\nThe randomized patients were stratified according to the disease site: M1a, M1b or M1c level.\n1) Patients with cutaneous, subcutaneous and/or limphnodal metastases with normal serum LDH value (from 96 to 460 U/L) were classified as M1a. […]"}, "lymphosarcoma cells": {"tested_on": "lymphosarcoma cells", "details": "BALB/c mice; cited from earlier work"}, "[2]": {"tested_on": "human non-small cell lung cancer (NSCLC) cells", "details": "1 or 10 mg per day subcutaneous; nude mice inoculated with human NSCLC cells; cited from earlier work"}, "[3]": {"tested_on": "methylcholanthrene-induced fibrosarcoma", "details": "mice with methylcholanthrene-induced fibrosarcoma; cited from earlier work"}}, "note": "Ends that are not written are not given here.", "data": [{"substance": "thymosin alpha 1 (SDAAVDTSSEITTKDLKEKKEVVEEAEN; ends and bridges not checked; UniProt P06454 2-29, looked up) [a compound well known in the medical field]", "values": [{"measurement": "dose-response effect", "setting": "[1]", "result": "clear dose-response effect"}, {"measurement": "liver and lung metastases of lymphosarcoma cells", "setting": "lymphosarcoma cells", "result": "significantly reduced"}, {"measurement": "local sarcoma growth", "setting": "lymphosarcoma cells", "result": "significantly reduced"}, {"measurement": "tumor volume", "setting": "[2]", "result": "significantly decreased"}, {"measurement": "pulmonary metastases", "setting": "[3]", "result": "reduced"}]}]}
